Results as given in patent publication US5066658A, “Substituted hydroxyureas” (Ortho Pharmaceutical Corporation, priority 1990, dated 1991).

test system: Arachidonate-Induced Bronchospasm (cyclooxygenase); test: Pulmonary Mechanics Assay: arachidonate-induced bronchospasm without indomethacin (indicative of cyclooxygenase inhibition); type: in vivo, male Hartley guinea pigs; conditions: Cavia porcellus, ID dosing, 50 mg/kg, guinea pig, read-out: Inhibition of Arachidonate-Induced Bronchospasm (ID Dosing), % Inh. without Indomethacin
Experimental: (§1) The bronchodilating activity of the compounds was tested in a pulmonary mechanics assay. Basically, male Hartley guinea pigs (about 400-500 g) were anesthetized with urethane (2 g/kg, i.p.) and placed in a whole body Plethysmograph. Cannulations of a jugular vein and carotid artery were performed for compound administration and monitoring blood pressure, respectively. The trachea was cannulated for respiration at a constate volume via a miniature starling pump. A Validyne differential pressure transducer (±20 cm H2 O) sensed transpleural pressure via a 15 gauge needle inserted into the pleural cavity and a sidearm from the tracheal cannula. Tidal volume was sensed by another Validyne differential pressure transducer (±2 cm H2 O) from pressure changes inside the plethysmograph. An on-line Buxco pulmonary mechanics computer calculated air flow, dynamic lung compliance and lung resistance. The values were recorded on a print-out.
(§2) The guinea pigs were pretreated with succinyl choline (1.2 mg/kg, i.v.) to arrest spontaneous respiration. A control challenge of arachidonic acid (0.5-1.0 mg/kg, i.v.) was administered, and the animals were then dosed with the test compound by various routes. At least 10 minutes were allowed to expire between arachidonic acid challenges. A second challenge was given and compared to the control response. This comparison was indicative of cyclooxygenase inhibition. Indomethacin (10 mg/kg, i.v.) was administered immediately after the second challenge. A third challenge of a higher dose of arachidonic acid (5-10 mg/kg, i.v.) was given. This response was induced by SRS-A and compared to the responses elicited by a separate control group of animals. Activity was indicative of lipoxygenase inhibition. Propranolol (0.005 mg/kg. i.v.) may be given prior to the third challenge to enhance the response to SRS-A.
(§3) Bronchoconstriction induced by arachidonic acid with or without indomethacin was expressed as maximum percent change in dynamic lung compliance (Cdyn) and maximum percent increase in lung resistance (RL). Each guinea pig served as its own control for cyclooxygenase evaluation. The results are shown in Table I and are expressed as the percent inhibition of control.

| SMILES | inhibition in vivo at 50 mg/kg [%] |
| --- | --- |
| COc1ccc([C@@H]2C[C@H]2NC(=O)N(C)O)cc1OC (relative stereo) [Example 66, N-[Trans-2-(3,4-dimethoxyphenyl)cyclopropyl]-N'-hydroxy-N'-methylurea] | 43 |
| CN(O)C(=O)NCc1ccc(-c2ccccc2)cc1 [Example 30, N-([1,1'-Biphenyl]-4-ylmethyl)N'hydroxy-N'methylurea] | < 20 |
| CN(O)C(=O)NCCCc1ccc(-c2ccccc2)cc1 [Example 32, N-[3-([1,1'-Biphenyl]-4-yl)propyl]-N'-hydroxy-N'-methylurea] | < 20 |
| CN(O)C(=O)NCCOc1ccc(-c2ccccc2)cc1 [Example 33, N-[2-([1,1'-biphenyl]-4-yloxy)ethyl]N'-hydroxy-N'-methylurea] | < 20 |
| CN(O)C(=O)NCCCOc1ccc(-c2ccccc2)cc1 [Example 34, N-[3-([l,l'biphenyl]-4-yloxy)propyl]N'hydroxy N'methylurea] | -74 |
| CN(O)C(=O)NCCCCOc1ccc(-c2ccccc2)cc1 [Example 35, N-[4-([1,1'-Biphenyl]-4-yloxy)butyl]N'-hydroxy-N'-methylurea] | < 20 |
| CN(O)C(=O)NCCCCCOc1ccc(-c2ccccc2)cc1 [Example 36, N-[5-([l,l'Biphenyl]-4-yloxy)pentyl]N'-hydroxy-N'-methylurea] | < 20 |
| CN(O)C(=O)NCCCCCCOc1ccc(-c2ccccc2)cc1 [Example 37, N-[6-([1,1'-Biphenyl]-4-yloxy)hexyl]N'hydroxy-N'-methylurea] | -33 |
| CN(O)C(=O)NCCCCCCCOc1ccc(-c2ccccc2)cc1 [Example 38] | -9 |
| COc1ccc(CCNC(=O)N(O)C(C)C)cc1OC [Example 41, N-[2-(3,4-Dimethoxyphenyl)ethyl]-N'-hydroxy-N'-(1-methylethyl)urea] | < 20 |

same assay, conditions: Cavia porcellus, IV dosing, 15 mg/kg, guinea pig, read-out: Inhibition of Arachidonate-Induced Bronchospasm (IV Dosing), % Inh. without Indomethacin

| SMILES | inhibition in vivo at 15 mg/kg [%] |
| --- | --- |
| COc1ccc([C@@H]2C[C@H]2NC(=O)N(C)O)cc1OC (relative stereo) [Example 66, N-[Trans-2-(3,4-dimethoxyphenyl)cyclopropyl]-N'-hydroxy-N'-methylurea] | 61 |
| COc1ccc(CCNC(=O)N(O)C(C)C)cc1OC [Example 41, N-[2-(3,4-Dimethoxyphenyl)ethyl]-N'-hydroxy-N'-(1-methylethyl)urea] | 42 |

test system: Arachidonate-Induced Bronchospasm (lipoxygenase); test: Pulmonary Mechanics Assay: arachidonate-induced bronchospasm with indomethacin (SRS-A response, indicative of lipoxygenase inhibition); type: in vivo, male Hartley guinea pigs; conditions: Cavia porcellus, ID dosing, 50 mg/kg, guinea pig, read-out: Inhibition of Arachidonate-Induced Bronchospasm (ID Dosing), % Inh. with Indomethacin
Experimental: as §1, §2, §3

| SMILES | inhibition in vivo at 50 mg/kg [%] |
| --- | --- |
| COc1ccc([C@@H]2C[C@H]2NC(=O)N(C)O)cc1OC (relative stereo) [Example 66, N-[Trans-2-(3,4-dimethoxyphenyl)cyclopropyl]-N'-hydroxy-N'-methylurea] | 45 |
| CN(O)C(=O)NCc1ccc(-c2ccccc2)cc1 [Example 30, N-([1,1'-Biphenyl]-4-ylmethyl)N'hydroxy-N'methylurea] | < 20 |
| CN(O)C(=O)NCCCc1ccc(-c2ccccc2)cc1 [Example 32, N-[3-([1,1'-Biphenyl]-4-yl)propyl]-N'-hydroxy-N'-methylurea] | < 20 |
| CN(O)C(=O)NCCOc1ccc(-c2ccccc2)cc1 [Example 33, N-[2-([1,1'-biphenyl]-4-yloxy)ethyl]N'-hydroxy-N'-methylurea] | 28 |
| CN(O)C(=O)NCCCOc1ccc(-c2ccccc2)cc1 [Example 34, N-[3-([l,l'biphenyl]-4-yloxy)propyl]N'hydroxy N'methylurea] | 34 |
| CN(O)C(=O)NCCCCOc1ccc(-c2ccccc2)cc1 [Example 35, N-[4-([1,1'-Biphenyl]-4-yloxy)butyl]N'-hydroxy-N'-methylurea] | 33 |
| CN(O)C(=O)NCCCCCOc1ccc(-c2ccccc2)cc1 [Example 36, N-[5-([l,l'Biphenyl]-4-yloxy)pentyl]N'-hydroxy-N'-methylurea] | 31 |
| CN(O)C(=O)NCCCCCCOc1ccc(-c2ccccc2)cc1 [Example 37, N-[6-([1,1'-Biphenyl]-4-yloxy)hexyl]N'hydroxy-N'-methylurea] | -11 |
| CN(O)C(=O)NCCCCCCCOc1ccc(-c2ccccc2)cc1 [Example 38] | < 20 |
| COc1ccc(CCNC(=O)N(O)C(C)C)cc1OC [Example 41, N-[2-(3,4-Dimethoxyphenyl)ethyl]-N'-hydroxy-N'-(1-methylethyl)urea] | 30 |

same assay, conditions: Cavia porcellus, IV dosing, 15 mg/kg, guinea pig, read-out: Inhibition of Arachidonate-Induced Bronchospasm (IV Dosing), % Inh. with Indomethacin

| SMILES | inhibition in vivo at 15 mg/kg [%] |
| --- | --- |
| COc1ccc([C@@H]2C[C@H]2NC(=O)N(C)O)cc1OC (relative stereo) [Example 66, N-[Trans-2-(3,4-dimethoxyphenyl)cyclopropyl]-N'-hydroxy-N'-methylurea] | 90 |
| COc1ccc(CCNC(=O)N(O)C(C)C)cc1OC [Example 41, N-[2-(3,4-Dimethoxyphenyl)ethyl]-N'-hydroxy-N'-(1-methylethyl)urea] | 70 |

molecular target: T1, 5-lipoxygenase (Rattus norvegicus, UniProt P12527); test: Inhibition of 5-lipoxygenase in cell-free homogenate of rat basophilic leukemia (RBL-1) cells; type: biochemical; conditions: 3 μM; RBL-1 cell-free homogenate; read-out: Inhibition of 5-Lipoxygenase, % Inh. @ 3 μM
T1 construct: The cell-free homogenate was prepared by sonication of the cells followed by centrifugation at 40,000 xg; endogenous in cells; host or cells: RBL-1 (rat basophilic leukemia) cells, 40,000 xg supernatant of the sonicate
T1 sequence (P12527 1-673): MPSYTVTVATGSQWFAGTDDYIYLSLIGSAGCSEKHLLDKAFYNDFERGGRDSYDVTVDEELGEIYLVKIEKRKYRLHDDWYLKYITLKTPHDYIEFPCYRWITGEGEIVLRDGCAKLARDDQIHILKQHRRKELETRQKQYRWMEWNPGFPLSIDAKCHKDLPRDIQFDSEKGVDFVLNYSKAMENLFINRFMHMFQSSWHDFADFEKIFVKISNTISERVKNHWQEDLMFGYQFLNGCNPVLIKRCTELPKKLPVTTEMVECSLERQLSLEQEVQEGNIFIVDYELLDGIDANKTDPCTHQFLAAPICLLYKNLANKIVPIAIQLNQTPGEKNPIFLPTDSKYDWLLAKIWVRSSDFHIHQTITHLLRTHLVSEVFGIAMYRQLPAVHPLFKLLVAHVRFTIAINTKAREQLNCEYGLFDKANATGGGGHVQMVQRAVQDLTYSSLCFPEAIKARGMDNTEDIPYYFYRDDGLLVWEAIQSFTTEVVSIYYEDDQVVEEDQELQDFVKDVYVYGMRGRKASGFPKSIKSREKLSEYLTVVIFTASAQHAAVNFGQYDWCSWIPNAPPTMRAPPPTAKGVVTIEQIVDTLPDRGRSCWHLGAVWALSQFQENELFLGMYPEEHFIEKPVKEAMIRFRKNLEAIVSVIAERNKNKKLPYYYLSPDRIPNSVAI
Experimental: The inhibition of 5-lipoxygenase was tested in a cell-free homogenate by the procedure of B. Jakschik et al., Biochem.Biophys.Res.Comm. 95, 103 (1980). Basically, rat basophilic leukemia cells (RBL-1 cells) were maintained in culture in a suitable medium, and were collected by centrifugation prior to assay. The cell-free homogenate was prepared by sonication of the cells followed by centrifugation at 40,000 xg. The CaCl2 dependent production of lipoxygenase products from ^14 C-arachidonic acid in the 40,000 xg supernatant was monitored in the presence of buffer (or other vehicle) or drug. Products were isolated by acidification and extraction, followed by thin layer chromatography. Radioactive areas corresponding to the authentic lipoxygenase products were quantitated by liquid scintillation counting. Data was reported as the IC50, the concentration causing 50% inhibition of the generation of lipoxygenase products. The results are shown it Table I as the percent inhibition at 3 μM or the amount of compound necessary to cause 50% inhibition.

| inhibition at 3 µM [%] | SMILES |
| --- | --- |
| 28 | COc1ccc([C@@H]2C[C@H]2NC(=O)N(C)O)cc1OC (relative stereo) [Example 66, N-[Trans-2-(3,4-dimethoxyphenyl)cyclopropyl]-N'-hydroxy-N'-methylurea] |
| 100 | CCCCCCN(O)C(=O)N(C)C [Example 10, N,N-Dimethyl-N'-hexyl-N'-hydroxyurea] |
| 94 | C=CCCCCCCCCNC(=O)N(C)O [Example 18, N-(9-Decenyl)-N'-methyl-N'-hydroxyurea] |
| 22 | C=CCCCCCCCCC(O)CNC(=O)N(C)O (centres unmarked) [Example 21, N-(2-Hydroxy-11-dodecenyl)-N'-methyl-N'-hydroxyurea] |
| 71 | CCCCC/C=C\C/C=C\C/C=C\C/C=C\CCCNC(=O)N(C)O [Example 22, N-(4,7,10,13-Nonadecatetraenyl)-N'-methyl-N'-hydroxyurea] |
| 30 | CCCCCCCCCCC1CN(C)C(=O)N(O)C1 (centres unmarked) [Example 29, 5-Decyl-1-hydroxy-3-methyl-3,4,5,6-tetrahydro-lH-pyrimidin-2-one] |
| 74 | CN(O)C(=O)NCc1ccc(-c2ccccc2)cc1 [Example 30, N-([1,1'-Biphenyl]-4-ylmethyl)N'hydroxy-N'methylurea] |
| 71 | CN(O)C(=O)NCCCc1ccc(-c2ccccc2)cc1 [Example 32, N-[3-([1,1'-Biphenyl]-4-yl)propyl]-N'-hydroxy-N'-methylurea] |
| 70 | CN(O)C(=O)NCCOc1ccc(-c2ccccc2)cc1 [Example 33, N-[2-([1,1'-biphenyl]-4-yloxy)ethyl]N'-hydroxy-N'-methylurea] |
| 93 | CN(O)C(=O)NCCCOc1ccc(-c2ccccc2)cc1 [Example 34, N-[3-([l,l'biphenyl]-4-yloxy)propyl]N'hydroxy N'methylurea] |
| 79 | CN(O)C(=O)NCCCCOc1ccc(-c2ccccc2)cc1 [Example 35, N-[4-([1,1'-Biphenyl]-4-yloxy)butyl]N'-hydroxy-N'-methylurea] |
| 67 | CN(O)C(=O)NCCCCCOc1ccc(-c2ccccc2)cc1 [Example 36, N-[5-([l,l'Biphenyl]-4-yloxy)pentyl]N'-hydroxy-N'-methylurea] |
| 65 | CN(O)C(=O)NCCCCCCOc1ccc(-c2ccccc2)cc1 [Example 37, N-[6-([1,1'-Biphenyl]-4-yloxy)hexyl]N'hydroxy-N'-methylurea] |
| 56 | CN(O)C(=O)NCCCCCCCOc1ccc(-c2ccccc2)cc1 [Example 38] |
| 95 | COc1ccc(CCNC(=O)N(O)C(C)C)cc1OC [Example 41, N-[2-(3,4-Dimethoxyphenyl)ethyl]-N'-hydroxy-N'-(1-methylethyl)urea] |
| 28 | COc1ccc(CNC(=O)N(C)O)cc1OC [Example 42, N-[(3,4-Dimethoxyphenyl)methyl]-N'-hydroxy-N'-methylurea] |
| 36 | COc1cc(CCNC(=O)N(C)O)cc(OC)c1OC [Example 45, N-[2-(3,4,5-Trimethoxyphenyl)ethyl]-N'-hydroxy-N'-methylurea] |
| 42 | CN(O)C(=O)NCCc1ccc2c(c1)OCCO2 [Example 46, N-[2-(Benzo-1,4-dioxan-6-yl)ethyl]-N'-hydroxy-N'-methylurea] |
| 56 | COc1ccc(OC)c(CCNC(=O)N(C)O)c1 [Example 47, N-[2-(2,5-Dimethoxyphenyl)ethyl]-N'-hydroxy-N'-methylurea] |
| 42 | COc1cc(CCNC(=O)N(C)O)cc(OC)c1 [Example 48, N-[2-(3,5-Dimethoxyphenyl)ethyl]-N'-hydroxy-N'-methylurea] |
| 55 | COc1cc2c(cc1OC)CC(NC(=O)N(C)O)C2 [Example 57, N-(5,6-Dimethoxyindan-2-yl)-N'-hydroxy-N'-methylurea] |
| 39 | COc1ccc(C2C3CCC(C3)C2NC(=O)N(C)O)cc1OC (stereo not drawn) [Example 59, N-[trans-3-(3,4-Dimethoxyphenyl)bicyclo[2.2.1]-heptan-2-yl]-N '-hydroxy-N'-methylurea] |
| 33 | COc1ccc(CCN(CC(C)C)C(=O)N(C)O)cc1OC [Example 64, N-[2-(3,4-Dimethoxyphenyl)ethyl]-N'-hydroxy-N'-methyl-N-(2-methylpropyl)urea] |
| 48 | COc1ccc(CCN(C(=O)N(C)O)c2ccc(Cl)cc2)cc1OC [Example 67, N-[2-(3,4-Dimethyloxyphenyl)ethyl]-N-(4-chlorophenyl)-N'-methyl-N'-hydroxyurea] |
| 46 | COc1cccc(C2CCCN(C(=O)N(C)O)C2)c1 (centres unmarked) [Example 73, N-Hydroxy-3-(3-methoxyphenyl)-N-methylpiperidine-1-carboxamide] |
| 42 | CCOC(=O)CCCN(O)C(=O)NCCc1ccc(OC)c(OC)c1 [Example 74, N-[2-(3,4-Dimethoxyphenyl)ethyl]-N'-[3-(ethoxycarbonyl)propyl]-N'-hydroxyurea] |
| 44 | CN(O)C(=O)N1CCC(C(c2ccccc2)c2ccccc2)CC1 [Example 75, 4-(Diphenylmethyl)-N-hydroxy-N-methylpiperidine-1-carboxamide] |
| 66 | CN(O)C(=O)NCCc1cccc(Oc2ccccc2)c1 [Example 76, N-Hydroxy-N-methyl-N'-[2-(3-phenoxyphenyl)ethyl]urea] |

| SMILES | inhibition at 3 µM [%] |
| --- | --- |
| COc1ccc(CC(C)NC(=O)N(C)O)cc1OC (centres unmarked) [Example 54, N-[2-(3,4-Dimethoxyphenyl)-1-methylethyl]-N'-hydroxy-N'-methylurea] | 8 |
